The test system of test [1] is sera from rabbits immunized with BI400-B binding to C5/gp41 (015/201). In words: Competitive ELISA for rabbit sera after immunization with BI400-B. To be noted: for inhibition of antibody binding to C5/gp41 (015/201): antigen 10-1000 μM preincubated with rabbit serum 4° C. overnight, FIG. 3. The protocol: 50-100 μl of a mixture of BI400-015 and -201 (pre-incubated in Coating buffer—0.05M Na2CO3 pH9.6; denoted CB—in cold at 16 μg/ml for each peptide 1-3 days prior to coating) or just CB (background control) was used for coating wells in microtiter plates at 4° C. overnight. Plates were then washed 3× with washing buffer (PBS+1% v/v Triton-X100; denoted WB), followed by 2 h blocking at room temperature (RT) with 200 μl/well of blocking buffer (PBS+1% w/v BSA). Plates were then washed 3× with WB, followed by 1 h incubation at 37° C. with 60-100 μl/well of added rabbit serum samples (diluted 1:10-1:250 final concentration) preincubated together (4° C. overnight) with serial dilutions (ranging from 10-1000 μM final concentration) of 400-SEQ.B, BI400-015, BI400-201, BI400-204d, recombinant gp41 (Shin-Won Scientific, SWO 102 gp41), BI301-23 (irrelevant protein; control), no peptide (i.e. PBS; control), LTNP-sera pools (diluted 1:10 final concentration), or Blood donor sera-pools (diluted 1:10 final concentration; control). Plates were then washed 6× with WB, followed by 1 h incubation at RT with 70 μl/well of Alkaline Phosphatase-conjugated Goat-anti-Rabbit-Ig (6 μg/ml; Dako D0487). Plates were then washed 6× with WB, followed by 10-60 min incubation at RT with 100 μl/well of 0.3% w/v of Phenoftalein monophosphate (Sigma P-5758). Plates were finally quenched by adding 100 μl/well of Quench solution (0.1M TRIS+0.1M EDTA+0.5M NaOH+0.01% w/v NaN3; pH14), followed by ELISA reader (ASYS UVM 340) at 550 nm.

Another test deals with individual human sera. In words: ELISA plate seroreactivity of individual human sera (LTNP, HIV chronically infected, blood donors). It is filed as binding. The following applies: FIG. 2, OD. As to the method:
Seroreactivities of individual LTNP patient sera to SEQ ID NO: 47 (16 μg) alone and in combination with SEQ ID NO: 6 (16 μg) were determined using an ELISA plate as a solid support. Sheep anti-C5 antibodies were used as a positive control. Optical density (OD) at […] was used as a read out following the enzymatic reaction from protein G coupled to alkaline phosphatase.

In the next test the test system is C5/gp41 (015/201). In words: Rabbit immunization with BI400-B vaccine, serum ELISA. It is filed as in vivo. The following applies: rabbits immunized intradermally weeks 0, 2 & 6, 500 μg in Freund's adjuvant; in the presence of PBS; FIG. 3. As to the method: New Zealand White female rabbits (n=3) were immunized intradermally at weeks 0, 2 & 6 with 1 ml of BI400-B vaccine consisting of 500 μg BI400-B in 50% V/V Freund's adjuvant (i.e. Complete Freund's adjuvant used for priming, followed by boostings with Incomplete Freund's adjuvant). Individual blood serum was isolated for ELISA.
50-100 μl of a mixture of BI400-015 and -201 (pre-incubated in Coating buffer—0.05M Na2CO3 pH9.6; denoted CB—in cold at 16 μg/ml for each peptide 1-3 days prior to coating) or just CB (background control) was used for coating wells in microtiter plates at 4° C. overnight. Plates were then washed 3× with washing buffer (PBS+1% v/v Triton-X100; denoted WB), followed by 2 h blocking at room temperature (RT) with 200 μl/well of blocking buffer (PBS+1% w/v BSA). […] Plates were finally quenched by adding 100 μl/well of Quench solution (0.1M TRIS+0.1M EDTA+0.5M NaOH+0.01% w/v NaN3; pH14), followed by ELISA reader (ASYS UVM 340) at 550 nm.
(ELISA stands for enzyme-linked immunosorbent assay.)

Consider four substances from patent publication US10251949B2, “Stabilized HIV-1 peptide constructs comprising the gp120 C5 domain and gp41 hydrophilic domain” (Bionor Immuno AS, priority 2009, dated 2019).

Bridge positions count the residues as written; N and C are the ends. Ends that are not written are not given here. I, II: the chains in the order shown.

Turning to “201: gp41 peptide (DRPEGIEEEGGERDR) [compound 201]”, in test [1], the “inhibition of antibody binding to C5/gp41 (015/201)” value (shortened to “inhibition of antibody binding”) is “could be inhibited”.

Turning to “APTKAKRRVVQREKR (Artificial sequene) [SEQ ID NO: 47]”, the “magnitude of response among LTNP patients compared to patients chronically infected with HIV” value in the test on individual human sera (individual sera) is “greater response”. Moreover, in the test with individual human sera (negative control sera), the “responses in blood donors” value is “consistently low”.

In the case of “BI400-B: SEQ ID NO: 38 and SEQ ID NO: 39 linked via Cys and Lys residues; vaccine antigen (chain 1 GAKRRVVGGCGGAKRRVVQREKRAGEREKRA; chain 2 GKGGIEEEGGRDRDRGGEQDRDR; bridge I:10-II:2 (inferred))”, the “binding of sera from immunized rabbits to C5/gp41 peptides” value in the test on C5/gp41 (015/201) was “bound to peptides corresponding to C5/gp41 (015/201)”. Besides, the “cross competition of anti-C5/gp41 rabbit sera by LTNP-sera pools” value in test [1] (LTNP-sera pools diluted 1:10, FIG. 4) is “competitively inhibited”. Further, the “inhibition of antibody binding” value in test [1] is given as “could be inhibited”.

As for “GGAIVNGSLADDDIVI [204d, peptide derived from C2]”, the “inhibition of antibody binding” value in test [1] is “could be inhibited”.
